Test results: ChEMBL document CHEMBL5465560, “Selectivity Literature for EUbOPEN Chemogenomic Library” (2024)
One block for each compound: values may come before it.

Key:
[1] = target: Beta-1 adrenergic receptor (Homo sapiens, UniProt P08588); test: Selectivity interaction (Eurofins CEREP Diversity Profile (receptors and ion channels)) EUB0000279b ADRB1; conditions: at 10 µM
[2] = target: T1, Cyclin-dependent kinase 11A (Homo sapiens) (UniProt Q9UQ88); test: Selectivity interaction (KinomeScan (DiscoverX)) EUB0001079a CDK11A; conditions: at 1 µM
T1 sequence (whole entry): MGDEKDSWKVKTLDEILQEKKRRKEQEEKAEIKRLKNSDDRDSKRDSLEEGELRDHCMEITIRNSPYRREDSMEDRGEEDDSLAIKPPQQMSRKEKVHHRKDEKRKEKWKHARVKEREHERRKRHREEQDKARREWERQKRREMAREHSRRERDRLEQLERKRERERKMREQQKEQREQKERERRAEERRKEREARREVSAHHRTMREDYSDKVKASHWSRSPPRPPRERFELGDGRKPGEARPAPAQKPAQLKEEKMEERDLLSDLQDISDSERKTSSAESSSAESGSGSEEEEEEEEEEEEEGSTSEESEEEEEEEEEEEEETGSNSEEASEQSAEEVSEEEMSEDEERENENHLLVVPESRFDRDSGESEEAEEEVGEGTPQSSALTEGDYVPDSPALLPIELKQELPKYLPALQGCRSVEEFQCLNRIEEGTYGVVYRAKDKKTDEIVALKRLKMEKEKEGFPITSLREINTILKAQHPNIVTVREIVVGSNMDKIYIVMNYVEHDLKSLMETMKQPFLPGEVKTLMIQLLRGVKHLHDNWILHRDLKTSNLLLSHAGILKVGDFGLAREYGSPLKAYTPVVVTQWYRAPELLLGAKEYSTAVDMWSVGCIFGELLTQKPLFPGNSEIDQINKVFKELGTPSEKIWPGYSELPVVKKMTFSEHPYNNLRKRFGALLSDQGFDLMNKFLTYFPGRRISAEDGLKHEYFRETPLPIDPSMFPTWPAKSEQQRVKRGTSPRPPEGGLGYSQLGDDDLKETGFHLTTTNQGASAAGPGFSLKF

[3] = target: T2, Calcium/calmodulin-dependent protein kinase type IV (Homo sapiens) (UniProt Q16566); test: Selectivity interaction (KinomeScan (DiscoverX)) EUB0000618a CAMK4; conditions: at 10 µM
T2 sequence (whole entry): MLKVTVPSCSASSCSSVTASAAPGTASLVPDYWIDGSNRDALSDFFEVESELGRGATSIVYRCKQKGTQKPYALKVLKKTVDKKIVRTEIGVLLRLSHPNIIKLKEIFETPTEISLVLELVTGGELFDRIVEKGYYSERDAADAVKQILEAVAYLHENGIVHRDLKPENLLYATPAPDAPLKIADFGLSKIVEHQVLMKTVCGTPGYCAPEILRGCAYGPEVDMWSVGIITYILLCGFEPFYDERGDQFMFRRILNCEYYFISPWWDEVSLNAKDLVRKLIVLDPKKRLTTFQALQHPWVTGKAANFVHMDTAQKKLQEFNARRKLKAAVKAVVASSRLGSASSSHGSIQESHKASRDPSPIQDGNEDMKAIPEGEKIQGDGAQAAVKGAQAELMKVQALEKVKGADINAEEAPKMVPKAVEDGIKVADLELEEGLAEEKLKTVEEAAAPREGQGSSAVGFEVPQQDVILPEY

[4] = target: T3, Mitogen-activated protein kinase 12 (Homo sapiens) (UniProt P53778); test: Selectivity interaction (KinomeScan (DiscoverX)) EUB0000618a MAPK12; conditions: at 10 µM
T3 sequence (whole entry): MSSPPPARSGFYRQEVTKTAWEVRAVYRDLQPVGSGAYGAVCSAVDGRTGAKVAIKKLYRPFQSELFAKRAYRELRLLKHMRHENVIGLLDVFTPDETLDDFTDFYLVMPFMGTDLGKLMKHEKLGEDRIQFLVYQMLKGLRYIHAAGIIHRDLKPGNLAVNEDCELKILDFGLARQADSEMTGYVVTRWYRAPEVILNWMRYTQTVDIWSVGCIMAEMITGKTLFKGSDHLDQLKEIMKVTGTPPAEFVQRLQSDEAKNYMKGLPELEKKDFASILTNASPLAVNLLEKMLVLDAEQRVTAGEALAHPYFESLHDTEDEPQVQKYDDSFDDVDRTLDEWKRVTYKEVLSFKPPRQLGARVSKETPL

[5] = target: Phosphatidylinositol 4-phosphate 3-kinase C2 domain-containing subunit beta (Homo sapiens) (UniProt O00750); test: Selectivity interaction (KinomeScan (DiscoverX)) EUB0001619a PIK3C2B; conditions: at 1 µM
[6] = target: T4, Eukaryotic elongation factor 2 kinase (Homo sapiens) (UniProt O00418); test: Selectivity interaction (ActivX KiNativ screen (kinase selectivity in THP-1 cell lysates)) EUB0000639a EEF2K; type: subcellular; conditions: lysate
T4 sequence (whole entry): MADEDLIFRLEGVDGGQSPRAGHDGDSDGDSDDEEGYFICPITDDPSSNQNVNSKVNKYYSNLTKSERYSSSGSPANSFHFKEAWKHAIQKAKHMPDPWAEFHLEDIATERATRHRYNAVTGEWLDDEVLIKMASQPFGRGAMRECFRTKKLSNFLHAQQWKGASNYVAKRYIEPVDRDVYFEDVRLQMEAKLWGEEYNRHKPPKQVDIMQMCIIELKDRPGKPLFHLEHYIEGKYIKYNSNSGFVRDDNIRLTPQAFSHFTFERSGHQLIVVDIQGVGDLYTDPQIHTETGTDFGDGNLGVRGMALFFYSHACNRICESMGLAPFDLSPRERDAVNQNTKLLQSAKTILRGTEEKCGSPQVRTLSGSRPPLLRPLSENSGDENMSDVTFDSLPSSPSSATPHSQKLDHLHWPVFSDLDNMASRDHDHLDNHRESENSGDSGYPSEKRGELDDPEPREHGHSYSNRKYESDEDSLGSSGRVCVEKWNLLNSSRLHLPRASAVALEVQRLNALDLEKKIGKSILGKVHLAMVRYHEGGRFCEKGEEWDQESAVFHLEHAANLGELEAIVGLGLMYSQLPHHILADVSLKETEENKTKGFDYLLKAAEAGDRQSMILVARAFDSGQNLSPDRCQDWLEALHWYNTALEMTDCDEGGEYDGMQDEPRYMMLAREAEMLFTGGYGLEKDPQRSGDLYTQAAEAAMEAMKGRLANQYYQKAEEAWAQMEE

[7] = target: Serine/threonine-protein kinase PLK1 (Homo sapiens, UniProt P53350); test: Selectivity interaction (ActivX KiNativ screen (kinase selectivity in THP-1 cell lysates)) EUB0000639a PLK1; type: subcellular; conditions: lysate, at 5 µM
[8] = target: Serine/threonine-protein kinase PRP4 homolog (Homo sapiens) (UniProt Q13523); test: Selectivity interaction (ActivX KiNativ screen (kinase selectivity in THP-1 cell lysates)) EUB0000639a PRPF4; type: subcellular; conditions: lysate, at 0.2 µM
[9] = target: Non-receptor tyrosine-protein kinase TYK2 (Homo sapiens, UniProt P29597); test: Selectivity interaction (ActivX KiNativ screen (kinase selectivity in THP-1 cell lysates)) EUB0000639a TYK2; type: subcellular; conditions: lysate, at 5 µM
Non-receptor tyrosine-protein kinase TYK2, sequence (P29597 whole entry): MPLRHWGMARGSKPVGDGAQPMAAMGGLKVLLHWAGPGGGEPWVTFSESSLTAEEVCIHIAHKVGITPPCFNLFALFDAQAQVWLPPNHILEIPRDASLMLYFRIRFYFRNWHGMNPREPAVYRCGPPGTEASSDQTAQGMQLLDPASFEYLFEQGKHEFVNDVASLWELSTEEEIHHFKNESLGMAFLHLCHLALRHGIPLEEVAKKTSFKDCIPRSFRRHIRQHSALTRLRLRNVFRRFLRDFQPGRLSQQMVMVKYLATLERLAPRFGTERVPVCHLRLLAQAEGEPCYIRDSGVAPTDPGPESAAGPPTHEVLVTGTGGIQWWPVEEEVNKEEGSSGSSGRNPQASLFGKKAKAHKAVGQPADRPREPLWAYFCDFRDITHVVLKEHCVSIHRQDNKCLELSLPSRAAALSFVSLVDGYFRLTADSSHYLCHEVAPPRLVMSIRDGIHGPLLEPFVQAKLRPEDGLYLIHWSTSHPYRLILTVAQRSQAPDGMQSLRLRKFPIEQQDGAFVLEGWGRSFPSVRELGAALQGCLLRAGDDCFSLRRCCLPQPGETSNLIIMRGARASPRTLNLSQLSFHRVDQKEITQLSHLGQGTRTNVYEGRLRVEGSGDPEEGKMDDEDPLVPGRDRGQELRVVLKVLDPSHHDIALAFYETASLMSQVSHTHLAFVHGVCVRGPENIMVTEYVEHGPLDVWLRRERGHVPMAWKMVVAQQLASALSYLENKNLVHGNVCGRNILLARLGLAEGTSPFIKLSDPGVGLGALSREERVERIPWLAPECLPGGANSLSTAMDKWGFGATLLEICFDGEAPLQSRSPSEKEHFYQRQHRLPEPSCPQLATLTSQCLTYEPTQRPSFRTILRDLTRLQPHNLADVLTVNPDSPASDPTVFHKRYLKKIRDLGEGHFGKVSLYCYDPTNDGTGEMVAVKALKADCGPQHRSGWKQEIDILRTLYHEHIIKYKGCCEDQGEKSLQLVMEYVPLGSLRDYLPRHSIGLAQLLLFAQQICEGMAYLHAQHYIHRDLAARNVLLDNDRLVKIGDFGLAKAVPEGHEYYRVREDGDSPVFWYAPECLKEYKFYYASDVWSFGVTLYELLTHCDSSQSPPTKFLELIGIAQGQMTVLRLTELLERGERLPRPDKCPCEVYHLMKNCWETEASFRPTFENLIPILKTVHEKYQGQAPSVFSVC

Serine/threonine-protein kinase PRP4 homolog (Homo sapiens), sequence (Q13523 whole entry): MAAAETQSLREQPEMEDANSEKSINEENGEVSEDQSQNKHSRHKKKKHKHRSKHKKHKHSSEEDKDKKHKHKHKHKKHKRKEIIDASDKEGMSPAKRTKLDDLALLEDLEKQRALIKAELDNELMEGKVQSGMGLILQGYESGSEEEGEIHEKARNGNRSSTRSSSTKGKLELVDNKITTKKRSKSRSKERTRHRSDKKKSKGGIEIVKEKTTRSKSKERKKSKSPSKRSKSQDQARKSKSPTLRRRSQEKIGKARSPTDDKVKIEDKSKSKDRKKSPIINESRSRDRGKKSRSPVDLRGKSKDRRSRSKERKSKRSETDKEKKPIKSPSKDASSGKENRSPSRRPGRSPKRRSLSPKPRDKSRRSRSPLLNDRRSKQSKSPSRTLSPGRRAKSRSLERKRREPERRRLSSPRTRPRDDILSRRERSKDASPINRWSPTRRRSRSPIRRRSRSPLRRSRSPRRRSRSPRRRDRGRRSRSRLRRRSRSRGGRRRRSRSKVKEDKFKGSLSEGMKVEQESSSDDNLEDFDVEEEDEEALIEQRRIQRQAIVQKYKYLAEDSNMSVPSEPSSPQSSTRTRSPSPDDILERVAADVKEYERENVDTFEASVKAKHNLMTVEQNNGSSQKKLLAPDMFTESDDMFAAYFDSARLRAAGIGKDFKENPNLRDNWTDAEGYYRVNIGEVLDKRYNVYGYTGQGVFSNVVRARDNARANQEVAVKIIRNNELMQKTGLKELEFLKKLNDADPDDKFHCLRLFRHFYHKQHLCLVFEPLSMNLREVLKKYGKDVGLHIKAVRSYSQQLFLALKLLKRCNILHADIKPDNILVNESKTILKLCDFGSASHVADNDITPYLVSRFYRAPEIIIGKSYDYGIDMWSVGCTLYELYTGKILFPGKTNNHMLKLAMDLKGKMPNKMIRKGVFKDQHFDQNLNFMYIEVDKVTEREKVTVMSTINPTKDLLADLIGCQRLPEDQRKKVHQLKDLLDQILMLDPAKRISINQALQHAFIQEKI
Phosphatidylinositol 4-phosphate 3-kinase C2 domain-containing subunit beta (Homo sapiens), sequence (O00750 whole entry, the tested form may be a part): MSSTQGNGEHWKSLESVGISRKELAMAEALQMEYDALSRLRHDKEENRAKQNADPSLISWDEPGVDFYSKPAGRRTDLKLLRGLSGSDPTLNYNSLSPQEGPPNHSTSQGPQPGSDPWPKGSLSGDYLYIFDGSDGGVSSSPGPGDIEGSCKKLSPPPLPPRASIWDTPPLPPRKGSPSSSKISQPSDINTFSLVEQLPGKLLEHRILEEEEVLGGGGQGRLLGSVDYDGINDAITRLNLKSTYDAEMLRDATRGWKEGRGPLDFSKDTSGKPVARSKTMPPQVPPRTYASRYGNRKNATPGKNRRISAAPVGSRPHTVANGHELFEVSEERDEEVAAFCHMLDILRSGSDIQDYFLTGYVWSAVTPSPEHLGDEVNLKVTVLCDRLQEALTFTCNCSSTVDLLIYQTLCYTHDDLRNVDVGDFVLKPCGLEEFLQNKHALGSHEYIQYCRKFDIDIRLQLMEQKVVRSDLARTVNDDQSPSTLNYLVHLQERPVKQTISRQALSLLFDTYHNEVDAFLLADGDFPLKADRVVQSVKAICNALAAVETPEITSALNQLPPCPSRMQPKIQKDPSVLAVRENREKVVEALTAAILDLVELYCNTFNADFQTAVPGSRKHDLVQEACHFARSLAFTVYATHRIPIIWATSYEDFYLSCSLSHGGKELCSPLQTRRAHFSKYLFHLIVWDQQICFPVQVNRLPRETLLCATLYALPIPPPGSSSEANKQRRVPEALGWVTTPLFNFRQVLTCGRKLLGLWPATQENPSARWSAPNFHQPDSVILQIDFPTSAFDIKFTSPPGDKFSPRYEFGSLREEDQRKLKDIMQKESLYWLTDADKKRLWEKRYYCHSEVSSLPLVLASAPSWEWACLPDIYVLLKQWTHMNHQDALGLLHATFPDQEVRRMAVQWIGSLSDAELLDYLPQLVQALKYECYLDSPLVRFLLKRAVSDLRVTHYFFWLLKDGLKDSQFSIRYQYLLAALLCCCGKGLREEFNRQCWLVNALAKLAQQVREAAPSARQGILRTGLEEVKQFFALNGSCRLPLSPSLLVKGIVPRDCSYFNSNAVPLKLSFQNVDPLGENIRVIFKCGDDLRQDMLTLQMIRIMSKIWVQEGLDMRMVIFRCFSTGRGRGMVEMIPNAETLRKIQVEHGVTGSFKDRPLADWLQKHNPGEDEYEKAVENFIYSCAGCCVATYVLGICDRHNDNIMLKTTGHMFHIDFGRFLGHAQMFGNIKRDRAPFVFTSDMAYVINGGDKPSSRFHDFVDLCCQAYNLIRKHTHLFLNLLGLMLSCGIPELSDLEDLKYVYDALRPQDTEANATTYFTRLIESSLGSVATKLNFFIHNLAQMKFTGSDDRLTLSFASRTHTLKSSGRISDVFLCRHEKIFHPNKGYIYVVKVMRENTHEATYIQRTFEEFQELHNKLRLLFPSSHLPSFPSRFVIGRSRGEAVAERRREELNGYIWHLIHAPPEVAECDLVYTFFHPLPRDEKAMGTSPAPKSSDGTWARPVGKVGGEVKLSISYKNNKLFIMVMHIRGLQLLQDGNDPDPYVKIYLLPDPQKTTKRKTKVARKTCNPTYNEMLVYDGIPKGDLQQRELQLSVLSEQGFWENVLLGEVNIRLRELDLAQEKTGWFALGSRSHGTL
Beta-1 adrenergic receptor, sequence (P08588 whole entry, looked up): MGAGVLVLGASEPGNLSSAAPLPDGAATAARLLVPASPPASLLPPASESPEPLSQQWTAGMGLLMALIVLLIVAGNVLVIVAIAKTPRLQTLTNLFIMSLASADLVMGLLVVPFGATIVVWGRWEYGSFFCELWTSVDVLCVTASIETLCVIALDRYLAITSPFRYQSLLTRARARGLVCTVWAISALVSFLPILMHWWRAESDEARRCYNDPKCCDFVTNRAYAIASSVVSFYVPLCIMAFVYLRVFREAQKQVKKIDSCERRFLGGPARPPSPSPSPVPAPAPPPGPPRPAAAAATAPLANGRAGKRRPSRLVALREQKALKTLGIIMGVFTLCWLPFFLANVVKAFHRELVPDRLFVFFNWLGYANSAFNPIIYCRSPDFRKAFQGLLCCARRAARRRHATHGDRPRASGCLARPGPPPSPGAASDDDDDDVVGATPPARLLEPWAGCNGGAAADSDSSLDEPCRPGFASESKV
Serine/threonine-protein kinase PLK1, sequence (P53350 whole entry): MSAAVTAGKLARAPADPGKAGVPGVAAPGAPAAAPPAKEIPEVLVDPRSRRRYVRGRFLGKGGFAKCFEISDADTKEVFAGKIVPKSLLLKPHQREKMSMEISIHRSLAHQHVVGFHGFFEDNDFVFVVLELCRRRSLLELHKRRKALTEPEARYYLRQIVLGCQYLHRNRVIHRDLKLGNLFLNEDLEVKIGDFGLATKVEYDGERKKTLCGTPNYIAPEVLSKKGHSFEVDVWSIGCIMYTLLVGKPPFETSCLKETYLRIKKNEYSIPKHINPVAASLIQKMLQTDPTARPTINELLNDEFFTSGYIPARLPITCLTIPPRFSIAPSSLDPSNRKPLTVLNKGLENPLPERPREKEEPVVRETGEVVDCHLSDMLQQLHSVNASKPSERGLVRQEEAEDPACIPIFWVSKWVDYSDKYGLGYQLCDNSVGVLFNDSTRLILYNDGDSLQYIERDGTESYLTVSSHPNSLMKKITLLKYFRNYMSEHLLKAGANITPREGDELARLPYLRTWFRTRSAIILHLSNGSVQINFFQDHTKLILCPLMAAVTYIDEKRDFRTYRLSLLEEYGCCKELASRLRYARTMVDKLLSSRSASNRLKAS

% of control [1]: 87%
SMILES: CC(=O)c1cc(-c2ccccc2OCC2CC2)c2ncccn12

SMILES: Nc1cnc(N2CCc3cc(S(=O)(=O)Nc4c(F)cc(Cl)cc4F)cc(N4CCCC4=O)c32)nc1 [TP-020n]
% of control [2]: 89%

SMILES: O[C@H]1CC[C@H](Nc2ncc3nc(Nc4c(F)cc(F)cc4F)n([C@H]4CCOC4)c3n2)CC1
% of control [3]: 87%
% of control [4]: 80%

SMILES: N#Cc1cccc(-c2c[nH]c3ncnc(N4CCOCC4)c23)c1
% of control [5]: 100%

% of inhibition ([6]; at 0.01 µM): 4.3%
% of inhibition ([6]; at 0.04 µM): -14.7%
% of inhibition ([6]; at 0.2 µM): 2.9%
% of inhibition ([6]; at 1 µM): -15.8%
% of inhibition ([6]; at 5 µM): -3.6%
% of inhibition [7]: 12.2%
% of inhibition [8]: 28.3%
% of inhibition [9]: 37.4%
SMILES: CC[C@@H]1[C@H](F)C(=O)N[C@@H]1COc1nccc2cc(C(N)=O)c(OC)cc12 [ZIMLOVISERTIB]
